Measurements published in PMC10810011 (Expert opinion on drug delivery, 2023).

Key:
[1] = target: T1, alpha2A adrenergic (Homo sapiens, UniProt P08913); assay: InVEST radioligand filter binding, alpha2A adrenergic; conditions: M13 20 μM, 100 = no effect
T1 sequence (P08913 1-465): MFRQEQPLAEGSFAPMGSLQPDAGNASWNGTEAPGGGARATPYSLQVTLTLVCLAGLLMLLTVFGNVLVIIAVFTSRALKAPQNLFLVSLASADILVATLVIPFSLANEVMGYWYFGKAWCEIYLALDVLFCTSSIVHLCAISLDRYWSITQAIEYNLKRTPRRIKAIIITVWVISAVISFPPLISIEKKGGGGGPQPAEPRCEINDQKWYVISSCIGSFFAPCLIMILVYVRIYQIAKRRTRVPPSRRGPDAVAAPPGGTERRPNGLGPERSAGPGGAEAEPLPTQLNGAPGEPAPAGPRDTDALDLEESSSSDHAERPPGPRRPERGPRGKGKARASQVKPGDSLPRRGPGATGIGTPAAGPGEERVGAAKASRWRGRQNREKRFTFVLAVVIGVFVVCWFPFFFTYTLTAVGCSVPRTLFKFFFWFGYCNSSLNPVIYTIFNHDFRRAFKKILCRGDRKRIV

[2] = target: D2S dopamine (Homo sapiens, UniProt P14416); assay: InVEST radioligand filter binding, D2S dopamine; conditions: M13 20 μM, 100 = no effect
D2S dopamine, sequence (P14416 1-414 isoform P14416-2): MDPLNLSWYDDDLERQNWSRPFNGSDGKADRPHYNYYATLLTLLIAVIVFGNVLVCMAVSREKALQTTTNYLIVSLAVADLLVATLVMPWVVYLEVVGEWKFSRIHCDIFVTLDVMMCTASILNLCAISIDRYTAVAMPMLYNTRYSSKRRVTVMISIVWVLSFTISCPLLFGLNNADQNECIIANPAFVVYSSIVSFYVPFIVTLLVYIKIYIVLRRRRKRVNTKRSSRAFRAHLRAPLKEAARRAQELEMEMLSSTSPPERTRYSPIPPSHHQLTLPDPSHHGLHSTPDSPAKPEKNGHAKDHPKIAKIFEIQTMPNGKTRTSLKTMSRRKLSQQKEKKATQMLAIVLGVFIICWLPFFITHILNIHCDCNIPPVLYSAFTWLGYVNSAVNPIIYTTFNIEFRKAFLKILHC

[3] = target: Opioid mu (Homo sapiens, UniProt P35372); assay: InVEST radioligand filter binding, Opioid mu; conditions: M13 20 μM, 100 = no effect
Opioid mu, sequence (P35372 whole entry): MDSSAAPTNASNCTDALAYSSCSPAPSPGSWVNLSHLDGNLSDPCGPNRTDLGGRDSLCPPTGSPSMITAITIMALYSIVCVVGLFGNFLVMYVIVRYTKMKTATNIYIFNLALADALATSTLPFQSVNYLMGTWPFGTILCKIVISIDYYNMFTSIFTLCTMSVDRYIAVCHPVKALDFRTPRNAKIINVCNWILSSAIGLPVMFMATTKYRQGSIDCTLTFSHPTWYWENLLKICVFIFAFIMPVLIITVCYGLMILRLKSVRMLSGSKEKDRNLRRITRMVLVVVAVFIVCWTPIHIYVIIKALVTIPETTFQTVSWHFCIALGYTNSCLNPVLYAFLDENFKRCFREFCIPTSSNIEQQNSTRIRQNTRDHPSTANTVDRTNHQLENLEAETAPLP

[4] = target: T2, 5-HT3 (Homo sapiens, UniProt P46098); assay: InVEST radioligand filter binding, ion channel 5-HT3; conditions: M13 20 μM, 100 = no effect
T2 sequence (P46098 24-478): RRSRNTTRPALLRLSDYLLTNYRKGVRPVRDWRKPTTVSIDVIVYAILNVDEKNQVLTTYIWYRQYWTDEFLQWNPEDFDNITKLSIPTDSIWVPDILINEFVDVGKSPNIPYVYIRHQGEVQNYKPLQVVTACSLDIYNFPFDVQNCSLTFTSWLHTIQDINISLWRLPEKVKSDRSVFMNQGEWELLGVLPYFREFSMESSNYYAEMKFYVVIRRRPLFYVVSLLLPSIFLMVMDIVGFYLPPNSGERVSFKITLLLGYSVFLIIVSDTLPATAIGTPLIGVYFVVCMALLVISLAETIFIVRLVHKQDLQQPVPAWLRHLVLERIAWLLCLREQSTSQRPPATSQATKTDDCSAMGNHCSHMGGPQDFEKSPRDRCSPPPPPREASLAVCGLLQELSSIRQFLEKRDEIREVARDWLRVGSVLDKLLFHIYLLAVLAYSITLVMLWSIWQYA

[5] = Kinetic solubility in pure water; type: physicochemical; conditions: room temperature, 24 h
[6] = Thermodynamic; type: physicochemical; conditions: pure water, room temperature, 24 h
[7] = Log D7.4 shake-flask; type: physicochemical; conditions: 1-octanol/phosphate buffer pH 7.4, shake-flask, room temperature
[8] = pKa determination; type: physicochemical; conditions: UV metric at pH 2–12
[9] = test system: CD-1 mice; assay: Single-dose maximum tolerated dose; type: in vivo, mouse
[10] = test system: Caco-2/BBe cells; assay: Cancer-related protein expression, Human XL oncology array; type: cell-based; conditions: Caco-2/BBe lysates, 24 h; free M13 5 μg/mL, M13-NL 10 μg/mL (5 μg/mL M13)
[11] = test system: Caco-2/BBe cells; assay: Cell cycle control phospho-antibody array; type: cell-based, human; conditions: 24 h, p < 0.01
[12] = test system: AOM/DSS-induced CAC mice; assay: AOM/DSS-induced CAC mouse model; type: in vivo; conditions: oral 5 mg/kg every 2 days, day 60
[13] = target: histamine H1 (Homo sapiens, UniProt P35367); conditions: M13 20 μM, 100 = no effect
histamine H1, sequence (P35367 whole entry): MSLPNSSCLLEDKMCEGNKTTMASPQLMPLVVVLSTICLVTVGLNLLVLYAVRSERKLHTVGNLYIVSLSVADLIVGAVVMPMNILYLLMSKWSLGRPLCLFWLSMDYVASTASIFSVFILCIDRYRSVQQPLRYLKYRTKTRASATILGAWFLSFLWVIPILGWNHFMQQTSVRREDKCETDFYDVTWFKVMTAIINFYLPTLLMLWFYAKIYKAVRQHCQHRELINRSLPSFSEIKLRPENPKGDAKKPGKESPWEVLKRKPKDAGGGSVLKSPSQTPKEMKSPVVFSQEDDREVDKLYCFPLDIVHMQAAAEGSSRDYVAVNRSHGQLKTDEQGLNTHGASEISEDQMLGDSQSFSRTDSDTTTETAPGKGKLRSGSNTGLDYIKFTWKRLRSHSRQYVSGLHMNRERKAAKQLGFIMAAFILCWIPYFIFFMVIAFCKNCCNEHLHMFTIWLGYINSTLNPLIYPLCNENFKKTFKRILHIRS

[14] = target: Opioid delta (Homo sapiens, UniProt P41143); conditions: M13 20 μM, 100 = no effect
Opioid delta, sequence (P41143 whole entry): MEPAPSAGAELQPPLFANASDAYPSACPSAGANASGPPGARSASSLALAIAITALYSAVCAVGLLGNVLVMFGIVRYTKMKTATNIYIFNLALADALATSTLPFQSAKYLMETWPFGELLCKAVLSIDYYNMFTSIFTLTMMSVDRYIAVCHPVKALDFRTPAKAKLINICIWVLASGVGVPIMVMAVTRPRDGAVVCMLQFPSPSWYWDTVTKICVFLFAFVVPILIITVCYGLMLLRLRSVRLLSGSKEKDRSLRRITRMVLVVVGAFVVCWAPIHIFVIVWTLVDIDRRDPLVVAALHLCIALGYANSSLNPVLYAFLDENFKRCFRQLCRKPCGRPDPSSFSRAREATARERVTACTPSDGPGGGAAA

[15] = test system: Salmonella typhimurium TA100; assay: Ames test, strain TA100; conditions: +S9 or -S9

With `CCCCCC(CC(=O)CCc1ccc(O)c(OC)c1)SC[C@H](NC(=O)CC[C@H](N)C(=O)O)C(=O)NCC(=O)O` (stereo partly shown) [M13, 5-glutathione-6-shogaol] the “% Activity Data 1” value ([1]; repetition 1) was 92%, the “% Activity Data 2” value ([1]; repetition 2) was 100% and the “% Activity Data 1” value ([2]; repetition 1) was 106%. For the same compound, the “% Activity Data 2” value ([2]; repetition 2) was 89%, the “% Activity Data 1” value ([3]; repetition 1) was 98% and the “% Activity Data 2” value ([3]; repetition 2) was 96%. The “% Activity Data 1” value ([4]; repetition 1) was 98%, the “% Activity Data 2” value ([4]; repetition 2) was 100% and the kinetic solubility [5] was > 200 µM. For the same compound, the “thermodynamic (or equilibrium) solubility” value [6] was 1390.03 µM, the LogD7.4 [7] was −1.75 and the pKa1 [8] was 3.24. For the same compound, the pKa2 [8] was 9.12, the pKa3 [8] was 10.42 and the “pathological sign in the anatomical organs” value ([9]; single oral dose 1000 mg/kg, day 7) was “no pathological sign”. The “body weight change, spleen-to-body weight ratio, blood physiological and biochemical indexes” value ([9]; single oral dose 1000 mg/kg, day 7, vs PBS control) was “no significant difference”, the “death during the experiment” value ([9]; single oral dose 1000 mg/kg, female CD-1 mice, 7 days) was “did not observe any death” and the maximum tolerated dose ([9]; single oral dose, mice) was > 1000 mg/kg. The “BCL-x expression vs. Control and statistical significance” value [10] was “Down-regulation, ^*”, the “CCL20/MIP-3α expression vs. Control and statistical significance” value [10] was “Down-regulation, ^**” and the “CEACAM-5 expression vs. Control and statistical significance” value [10] was “Down-regulation, ^*”. For the same compound, the “CXCL8/IL-8 expression vs. Control and statistical significance” value [10] was “Down-regulation, ^*”, the “CapG expression vs. Control and statistical significance” value [10] was “Down-regulation, ^*” and the “Cathepsin B expression vs. Control and statistical significance” value [10] was “Down-regulation, ^*”. For the same compound, the “Cathepsin D expression vs. Control and statistical significance” value [10] was “Down-regulation, ^*”, the “Cathepsin S expression vs. Control and statistical significance” value [10] was “Down-regulation, ^**” and the “Dkk-1 expression vs. Control and statistical significance” value [10] was “Down-regulation, ^**”. The “EGFR expression vs. Control and statistical significance” value [10] was “Down-regulation, ^*”, the “Enolase 2 expression vs. Control and statistical significance” value [10] was “Down-regulation, ^*” and the “ErbB2/Her2 expression vs. Control and statistical significance” value [10] was “Down-regulation, ^**”. For the same compound, the “ErbB3/Her3 expression vs. Control and statistical significance” value [10] was “Down-regulation, ^***”, the “Galectin-3 expression vs. Control and statistical significance” value [10] was “Down-regulation, *” and the “HNF-3β expression vs. Control and statistical significance” value [10] was “Down-regulation, ^**”. The “HO-1/HMOX1 expression vs. Control and statistical significance” value [10] was “Down-regulation, ^***”, the “P27/Kip1 expression vs. Control and statistical significance” value [10] was “Down-regulation, ^**” and the “PDGF-AA expression vs. Control and statistical significance” value [10] was “Down-regulation, ^*”. The “Progranulin expression vs. Control and statistical significance” value [10] was “Down-regulation, ^*”, the “Prostasin/Prss8 expression vs. Control and statistical significance” value [10] was “Down-regulation, ^*” and the “Survivin expression vs. Control and statistical significance” value [10] was “Down-regulation, ^***”. For the same compound, the “TROP1/EpCAM expression vs. Control and statistical significance” value [10] was “Down-regulation, ^***”, the “CDC25A expression compared with the control and NL groups” value [11] was “down-regulated” and the “phosphorylated CDC25A (p-CDC25A) compared with the control and NL groups” value [11] was “down-regulated”. The “number of tumors compared with the AOM/DSS group” value [12] was “failed to reduce”, the “% Activity Data 1” value ([13]; repetition 1) was 102% and the “% Activity Data 2” value ([13]; repetition 2) was 99%. For the same compound, the “% Activity Data 1” value ([14]; repetition 1) was 98%, the “% Activity Data 2” value ([14]; repetition 2) was 104% and the “number of revertant colonies” value ([15]; TA100, 156 ~ 5000 μg/plate) was “did not increase”. For the same compound, the mutation factor ([15]; TA100, all concentrations 156 ~ 5000 μg/plate) was “less than 1.6”.
